The values that follow come from patent US20120107323A1, “KINASE PROTEIN BINDING INHIBITORS” (University of Florida, priority 2009, published 2012).

One assay addresses T1, FAK and IGF-1R (Homo sapiens, UniProt Q05397).
T1 construct: endogenous in cells; host or cells: C8161 (A2) and A375 (A3) melanoma cells
Briefly: Coimmunoprecipitation of FAK and IGF-1R in A375 melanoma cells. Format: cell-based. The settings on record: average IC50, A375 cells, immunoprecipitation with antibody against FAK; read-out: IC50, disruption of FAK/IGF-1R binding. An excerpt:
Computational Docking The crystal structures of the N-terminal domain of FAK (PDB code 2AL6) (22) and the kinase domain of IGF-1R(PDB 1P40A) (23) were utilized for in silico molecular modeling of their interaction as previously described. The three-dimensional coordinates of compound NSC344553 (INT2-31), obtained from the database of the National Cancer Institute, Developmental Therapeutics Program (NCI/DTP), were docked onto the predicted interface of the amino-terminus of FAK (amino acids 127-243) with the intracytoplasmic portion of IGF-1R (21). […] 100 orientations were created for NSC344553 in the target site and were scored using the computer program grid-based scoring function. […] The intermolecular energies for all configurations of NSC 344553 in binding to FAK-NT2 were calculated as the sum of electrostatic and van der Waals energies. These energy terms were evaluated as correlation functions, which were computed efficiently with Fast Fourier Transforms. […] Bound proteins were boiled in 6× Laemmli buffer and analyzed by SDS-PAGE and Western blotting. […] The intensity of the bands in the western blots was measured with scion image analysis software program. […]

The subject of another assay is C8161 melanoma cells. Briefly: Apoptosis by Hoechst staining. Format: cell-based, human. The following applies: 5 μM, 72 h. As to the method:
Detachment assay: Cells were plated with and without compound for 24, 48, and 72 h, and detached and attached cells were counted in a hemocytometer. The percent of detachment was calculated by dividing the number of detached cells by the total number of cells and experiments performed in triplicate. Apoptosis assays: After treatment, attached and detached cells were collected, counted and prepared for terminal uridine deoxynucleotidyl transferase (TUNEL) assay by utilizing an APO-BRDU kit (BD Pharmingen, San Diego, Calif.) and cells analyzed with a FACSCalibur cytometer (Becton Dickinson, San Jose, Calif.). In addition, apoptotic cells were analyzed with Hoechst 33342 staining (1 μg/ml). The percent of apoptotic cells was calculated as the ratio of apoptotic cells to total number of cells.
In addition, apoptotic cells were also analyzed by Hoechst staining. To the prepared cells as described above, Hoechst 33342 (1 μg/ml) was added, incubated in the dark room temperature for 10 minutes, and the specimens were mounted on glass coverslips. The slides were viewed under the Zeiss microscope for apoptotic nuclei. The percent of apoptotic cells was calculated as the ratio of apoptotic cells to total number of cells. Over 300 cells per sample were analyzed.

T1 sequence (Q05397 2-1052 limits assumed): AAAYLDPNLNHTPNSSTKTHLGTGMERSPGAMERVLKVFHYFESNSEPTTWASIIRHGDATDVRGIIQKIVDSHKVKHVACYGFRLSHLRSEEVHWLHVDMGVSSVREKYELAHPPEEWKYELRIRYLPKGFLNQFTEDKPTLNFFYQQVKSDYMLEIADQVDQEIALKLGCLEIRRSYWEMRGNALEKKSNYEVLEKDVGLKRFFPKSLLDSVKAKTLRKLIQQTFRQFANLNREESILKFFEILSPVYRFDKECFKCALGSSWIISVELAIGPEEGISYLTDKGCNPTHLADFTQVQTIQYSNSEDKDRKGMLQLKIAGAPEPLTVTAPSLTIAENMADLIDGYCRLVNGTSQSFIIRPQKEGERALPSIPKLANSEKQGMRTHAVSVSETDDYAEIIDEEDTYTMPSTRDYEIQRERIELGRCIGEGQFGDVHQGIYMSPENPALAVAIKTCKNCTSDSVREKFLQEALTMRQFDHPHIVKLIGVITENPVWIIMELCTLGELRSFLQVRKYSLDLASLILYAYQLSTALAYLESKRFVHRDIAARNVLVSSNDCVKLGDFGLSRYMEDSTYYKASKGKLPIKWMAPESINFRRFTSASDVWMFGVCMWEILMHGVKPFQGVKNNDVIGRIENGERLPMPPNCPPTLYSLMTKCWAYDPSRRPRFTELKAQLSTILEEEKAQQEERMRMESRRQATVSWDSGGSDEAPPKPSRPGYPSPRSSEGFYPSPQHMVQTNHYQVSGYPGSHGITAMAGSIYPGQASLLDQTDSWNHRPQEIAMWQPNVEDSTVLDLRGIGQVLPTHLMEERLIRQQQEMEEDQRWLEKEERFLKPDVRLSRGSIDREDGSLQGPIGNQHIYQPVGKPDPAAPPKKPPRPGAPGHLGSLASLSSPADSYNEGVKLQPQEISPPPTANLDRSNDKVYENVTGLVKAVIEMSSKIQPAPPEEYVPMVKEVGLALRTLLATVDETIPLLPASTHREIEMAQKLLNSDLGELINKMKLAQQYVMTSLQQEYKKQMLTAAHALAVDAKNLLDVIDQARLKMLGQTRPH

In the case of `CSc1ncnc2c1ccn2C1O[C@H](COP(=O)(O)O)[C@@H](O)[C@H]1O` (stereo partly drawn) [INT2-31, 4-(Methylthio)-7-(5-O-phosphono-D-ribofuranosyl)-{7H-Pyrrolo[2,3-d]pyrimidine}], on FAK and IGF-1R, the IC50 is 3.17 µM. Also, the “induction of apoptosis, Hoescht positive cells” value in the assay with C8161 melanoma cells is recorded as “greater than 50%”.
